The record followed here is patent US20240425479A1, “HALO-SUBSTITUTED AMINO AZA-HETEROARYL COMPOUNDS AS INHIBITORS OF THE HAEMATOPOIETIC PROGENITOR KINASE 1 (HPK1)” (priority 2021, published 2024).

Assay [1] deals with T1, Recombinant (1-346) HPK1 (h) (Homo sapiens, UniProt Q92918).
T1 construct: Recombinant (1-346) HPK1 (h) is incubated with 8 mM MOPS pH 7.0
T1 sequence (Q92918 1-346): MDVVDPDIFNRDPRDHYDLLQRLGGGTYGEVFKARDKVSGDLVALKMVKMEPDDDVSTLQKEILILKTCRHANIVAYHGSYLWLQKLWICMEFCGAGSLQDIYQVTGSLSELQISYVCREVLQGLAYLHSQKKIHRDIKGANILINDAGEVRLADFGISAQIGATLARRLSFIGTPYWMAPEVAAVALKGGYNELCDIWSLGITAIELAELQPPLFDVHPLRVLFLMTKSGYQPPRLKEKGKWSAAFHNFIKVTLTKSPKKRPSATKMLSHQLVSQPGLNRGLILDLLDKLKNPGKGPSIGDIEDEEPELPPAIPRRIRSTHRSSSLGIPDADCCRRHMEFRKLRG
In words: HPK1 human STE kinase enzymatic radiometric assay. It is filed as biochemical. As to conditions: read-out: HPK1 IC50 nM Range. In short, it runs like this: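 Compounds in 3-fold, 9-point serial dilution; kinase (residues 1-346) phosphorylates myelin basic protein (0.33 mg/mL) using [gamma-33P]-ATP at pH 7.0 (MOPS, EDTA, Mg acetate) for 40 min, room temperature. Acid-quenched mixture filtered onto P30 mats; incorporated radioactivity read by scintillation counting.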

In a further assay the target is Lck (h) (Homo sapiens, UniProt P06239). In words: Lck human STE kinase enzymatic radiometric assay. In kind it is biochemical. As to conditions: read-out: Lck IC50 nM Range.

Each structure is given as a SMILES string. Structures can show the parent of a compound that is named as a salt.

Chain of Lck (h) (P06239 whole entry): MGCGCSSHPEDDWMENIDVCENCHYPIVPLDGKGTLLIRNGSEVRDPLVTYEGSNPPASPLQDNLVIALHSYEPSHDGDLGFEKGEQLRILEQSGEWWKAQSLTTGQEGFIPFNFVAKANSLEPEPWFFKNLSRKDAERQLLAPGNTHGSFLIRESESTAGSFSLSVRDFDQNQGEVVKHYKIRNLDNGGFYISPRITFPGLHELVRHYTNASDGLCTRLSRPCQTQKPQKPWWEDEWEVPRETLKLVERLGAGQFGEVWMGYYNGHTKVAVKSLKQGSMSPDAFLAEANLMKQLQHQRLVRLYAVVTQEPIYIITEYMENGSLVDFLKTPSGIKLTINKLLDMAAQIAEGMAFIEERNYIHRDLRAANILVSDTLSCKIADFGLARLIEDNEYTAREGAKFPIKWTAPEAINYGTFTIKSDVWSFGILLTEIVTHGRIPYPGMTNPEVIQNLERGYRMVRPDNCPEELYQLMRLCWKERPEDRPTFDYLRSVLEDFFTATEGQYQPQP

Turning to `CC(C)N1CCN(c2ccc(-c3nc(-c4cc5c(cc4F)C(=O)NCC5)c(N)nc3Cl)cc2)CC1` [Example I-8, 6-(3-amino-5-chloro-6-(4-(4-isopropylpiperazin-1-yl)phenyl)pyrazin-2-yl)-7-fluoro-3,4-dihydroisoquinolin-1(2H)-one], the IC50 in assay [1] is 11 to 100 nM; on Lck (h), more than 1000 nM.

On to `CN(C)Cc1cc(-c2nc(-c3ccc4c(c3)CCNC4=O)c(N)nc2F)ccc1C1CCOCC1` [Example I-59, 6-(3-amino-6-(3-((dimethylamino)methyl)-4-(tetrahydro-2H-pyran-4-yl)phenyl)-5-fluoropyrazin-2-yl)-3,4-dihydroisoquinolin-1(2H)-one], for which the IC50 in assay [1] was 0.1 to 10 nM; on Lck (h) it was more than 1000 nM.

As for `CC(C)N1CCN(c2ccc(-c3nc(-c4cc(F)c5c(=O)[nH]ccc5c4)c(N)nc3F)cc2)CC1` [Example I-21, 6-(3-amino-5-fluoro-6-(4-(4-isopropylpiperazin-1-yl)phenyl)pyrazin-2-yl)-8-fluoroisoquinolin-1(2H)-one], the values for the IC50 (in assay [1]; at Lck (h)) were 0.1 to 10 nM and 101 to 1000 nM, respectively.

As for `Nc1nc(F)c(-c2ccc(C3CCOCC3)c([C@@H]3CCCN3)c2)nc1-c1ccc2c(c1)CCNC2=O` [Example I-18, (S)-6-(3-amino-5-fluoro-6-(3-(pyrrolidin-2-yl)-4-(tetrahydro-2H-pyran-4-yl)phenyl)pyrazin-2-yl)-3,4-dihydroisoquinolin-1(2H)-one], the figures for the half-inhibitory concentration (IC50) (in assay [1]; at Lck (h)) were 0.1 to 10 nM and more than 1000 nM, respectively.

For the compound `CC(C)N1CCN(c2ccc(-c3nc(-c4ccc5c(c4)C4(CC4)CNC5=O)c(N)nc3F)cc2)CC1` [Example I-103, 6′-(3-amino-5-fluoro-6-(4-(4-isopropylpiperazin-1-yl)phenyl)pyrazin-2-yl)-2′,3′-dihydro-1′H-spiro[cyclopropane-1,4′-isoquinolin]-1′-one], the results for the half-maximal inhibitory concentration (IC50) (in assay [1]; on Lck (h)) were 0.1 to 10 nM and 101 to 1000 nM, respectively.

As to `Nc1nc(F)c(-c2ccc(N3CCN(CC4CC4)CC3)cc2)nc1-c1cc(F)c2c(=O)[nH]ccc2c1` [Example I-24, 6-(3-amino-6-(4-(4-(cyclopropylmethyl)piperazin-1-yl)phenyl)-5-fluoropyrazin-2-yl)-8-fluoroisoquinolin-1(2H)-one], the IC50 was in the range of 0.1 to 10 nM in assay [1] and 101 to 1000 nM at Lck (h).

Regarding `Nc1nc(F)c(-c2ccc(N3CCOCC3)c(CN3CCC3)c2)nc1-c1cc2c(cc1F)C(=O)NCC2` [Example I-145, 6-(3-amino-6-(3-(azetidin-1-ylmethyl)-4-morpholinophenyl)-5-fluoropyrazin-2-yl)-7-fluoro-3,4-dihydroisoquinolin-1(2H)-one], the IC50 in assay [1] was 0.1 to 10 nM; at Lck (h), more than 1000 nM.

Consider `CCN(C)Cc1cc(-c2nc(-c3cc4c(cc3F)C(=O)NCC4)c(N)nc2F)ccc1C1CCOCC1` [Example I-164, 6-(3-amino-6-(3-((ethyl(methyl)amino)methyl)-4-(tetrahydro-2H-pyran-4-yl)phenyl)-5-fluoropyrazin-2-yl)-7-fluoro-3,4-dihydroisoquinolin-1(2H)-one], for which the IC50 in assay [1] was 0.1 to 10 nM; at Lck (h), more than 1000 nM.

Consider `CC(C)N1CC=C(c2ccc(-c3nc(-c4cc5c(cc4F)C(=O)NCC5)c(N)nc3F)cc2)CC1` [Example I-9, 6-(3-amino-5-fluoro-6-(4-(1-isopropyl-1,2,3,6-tetrahydropyridin-4-yl)phenyl)pyrazin-2-yl)-7-fluoro-3,4-dihydroisoquinolin-1(2H)-one], for which the results for the half-inhibitory concentration (IC50) (in assay [1]; at Lck (h)) were 0.1 to 10 nM and 101 to 1000 nM, respectively.

In the case of `Nc1nc(F)c(-c2ccc(N3CCOCC3)cc2)nc1-c1ccc2c(c1)CCNC2=O` [Example I-17, 6-(3-amino-5-fluoro-6-(4-morpholinophenyl)pyrazin-2-yl)-3,4-dihydroisoquinolin-1(2H)-one], the IC50 in assay [1] is 0.1 to 10 nM; at Lck (h) it was more than 1000 nM.

On to `Nc1nc(F)c(-c2ccc(N3CCN(CC4CC4)CC3)cc2)nc1-c1cc2cc[nH]c(=O)c2cc1F` [Example I-25, 6-(3-amino-6-(4-(4-(cyclopropylmethyl)piperazin-1-yl)phenyl)-5-fluoropyrazin-2-yl)-7-fluoroisoquinolin-1(2H)-one], for which the IC50 is 0.1 to 10 nM in assay [1] and 101 to 1000 nM at Lck (h).

With `Nc1nc(F)c(-c2ccc(C3CCN(CC4CC4)CC3)cc2)nc1-c1cc(F)c2c(c1)CCNC2=O` [Example I-13, 6-(3-amino-6-(4-(1-(cyclopropylmethyl)piperidin-4-yl)phenyl)-5-fluoropyrazin-2-yl)-8-fluoro-3,4-dihydroisoquinolin-1(2H)-one Formate], the concentration for half-maximal inhibition (IC50) in assay [1] is 0.1 to 10 nM; on Lck (h) it was more than 1000 nM.

Turning to `CC(C)N1CCN(c2ccc(-c3nc(-c4ccc5c(=O)[nH]ncc5c4)c(N)nc3F)cc2)CC1` [Example I-38, 6-(3-amino-5-fluoro-6-(4-(4-isopropylpiperazin-1-yl)phenyl)pyrazin-2-yl)phthalazin-1(2H)-one], the figures for the concentration for half-maximal inhibition (IC50) (in assay [1]; at Lck (h)) were 11 to 100 nM and more than 1000 nM, respectively.

As for `Cc1[nH]c(=O)c2ccc(-c3nc(-c4ccc(N5CCN(C(C)C)CC5)cc4)c(F)nc3N)cc2c1F` [Example I-71, 6-(3-amino-5-fluoro-6-(4-(4-isopropylpiperazin-1-yl)phenyl)pyrazin-2-yl)-4-fluoro-3-methylisoquinolin-1(2H)-one], the values for the half-inhibitory concentration (IC50) (in assay [1]; at Lck (h)) were 0.1 to 10 nM and more than 1000 nM, respectively.

Regarding `CN(C)Cc1cc(-c2nc(-c3cc4c(F)c[nH]c(=O)c4cc3F)c(N)nc2F)ccc1N1CCOCC1` [Example I-142, 6-(3-amino-6-(3-((dimethylamino)methyl)-4-morpholinophenyl)-5-fluoropyrazin-2-yl)-4,7-difluoroisoquinolin-1(2H)-one], the IC50 in assay [1] was 0.1 to 10 nM; on Lck (h), more than 1000 nM.

In the case of `CC(C)N1C[C@H]2C[C@@]2(c2ccc(-c3nc(-c4cc5c(cc4F)C(=O)NCC5)c(N)nc3F)cc2)C1` [Example I-4, 6-(3-amino-5-fluoro-6-(4-((1R,5S)-3-isopropyl-3-azabicyclo[3.1.0]hexan-1-yl)phenyl)pyrazin-2-yl)-7-fluoro-3,4-dihydroisoquinolin-1(2H)-one], the IC50 in assay [1] is 0.1 to 10 nM; at Lck (h), more than 1000 nM.

For `CN(C)Cc1cc(-c2nc(-c3ccc4c(c3)C3(CC3)CNC4=O)c(N)nc2F)ccc1C1CCOCC1` [Example I-110, 6′-(3-amino-6-(3-((dimethylamino)methyl)-4-(tetrahydro-2H-pyran-4-yl)phenyl)-5-fluoropyrazin-2-yl)-2′,3′-dihydro-1′H-spiro[cyclopropane-1,4′-isoquinolin]-1′-one], the IC50 in assay [1] was in the range of 0.1 to 10 nM; on Lck (h), 101 to 1000 nM.

`CN(C)Cc1cc(-c2nc(-c3cc4c(cc3F)C(=O)NCC4)c(N)nc2F)ccc1C1CCOCC1` [Example I-60, 6-(3-amino-6-(3-((dimethylamino)methyl)-4-(tetrahydro-2H-pyran-4-yl)phenyl)-5-fluoropyrazin-2-yl)-7-fluoro-3,4-dihydroisoquinolin-1(2H)-one]: the IC50 in assay [1] is 0.1 to 10 nM; at Lck (h) it was more than 1000 nM.

As to `CC(C)N1CCN(c2ccc(-c3nc(-c4ccc5c(=O)[nH]ccc5c4)c(N)nc3F)cc2)CC1` [Example I-20, 6-(3-amino-5-fluoro-6-(4-(4-isopropylpiperazin-1-yl)phenyl)pyrazin-2-yl)isoquinolin-1(2H)-one], the half-maximal inhibitory concentration (IC50) was 0.1 to 10 nM in assay [1] and more than 1000 nM at Lck (h).

`Nc1nc(F)c(-c2ccc(N3CCN(CCC4CC4)CC3)cc2)nc1-c1cc(F)c2c(c1)CCNC2=O` [Example I-26, 6-(3-amino-6-(4-(4-(2-cyclopropylethyl)piperazin-1-yl)phenyl)-5-fluoropyrazin-2-yl)-8-fluoro-3,4-dihydroisoquinolin-1(2H)-one]: the half-inhibitory concentration (IC50) was 0.1 to 10 nM in assay [1] and more than 1000 nM on Lck (h).

Regarding `CNCC1Cc2cc(-c3nc(-c4ccc(N5CCN(C(C)C)CC5)cc4)c(F)nc3N)ccc2C(=O)N1` (stereo not drawn) [Example I-11, 6-(3-amino-5-fluoro-6-(4-(4-isopropylpiperazin-1-yl)phenyl)pyrazin-2-yl)-3-((methylamino)methyl)-3,4-dihydroisoquinolin-1(2H)-one], the half-inhibitory concentration (IC50) was 0.1 to 10 nM in assay [1] and more than 1000 nM on Lck (h).

For `Cc1c[nH]c(=O)c2ccc(-c3nc(-c4ccc(N5CCN(CC6CC6)CC5)cc4)c(F)nc3N)cc12` [Example I-72, 6-(3-amino-6-(4-(4-(cyclopropylmethyl)piperazin-1-yl)phenyl)-5-fluoropyrazin-2-yl)-4-methylisoquinolin-1(2H)-one], the concentration for half-maximal inhibition (IC50) in assay [1] was 0.1 to 10 nM; on Lck (h), more than 1000 nM.

Consider `Cc1c[nH]c(=O)c2ccc(-c3nc(-c4ccc(N5CCN(C(C)C)CC5)cc4)c(F)nc3N)cc12` [Example I-62, 6-(3-amino-5-fluoro-6-(4-(4-isopropylpiperazin-1-yl)phenyl)pyrazin-2-yl)-4-methylisoquinolin-1(2H)-one], for which the figures for the IC50 (in assay [1]; at Lck (h)) were 0.1 to 10 nM and 101 to 1000 nM, respectively.

As for `C[C@@H]1CN(c2ccc(-c3nc(-c4ccc5c(c4)C(F)(F)CNC5=O)c(N)nc3F)cc2CN(C)C)C[C@H](C)O1` [Example I-257, 6-(3-amino-6-(3-((dimethylamino)methyl)-4-((2R,6S)-2,6-dimethylmorpholino)phenyl)-5-fluoropyrazin-2-yl)-4,4-difluoro-3,4-dihydroisoquinolin-1(2H)-one], the figures for the IC50 (in assay [1]; at Lck (h)) were 0.1 to 10 nM and more than 1000 nM, respectively.

The IC50 is the concentration at which inhibition is half-maximal.
